Data: patent US12550899B2, “Topramezone derivative and use thereof” (priority 2023, dated 2026)
Entries after “also recorded” stand apart in the source; their conditions may differ.

Experiments:
Digitaria sanguinalis = experiment: Laboratory rainfastness test (foliar spray, simulated rainfall); type: in vivo; settings: for Average fresh weight / Control efficacy: 20 days post-application
Protocol: Refer to the “Pesticides guidelines for laboratory bioactivity tests Part 4: Foliar spray application test for herbicide activity, NY/T 1155.4-2006”.
The soil used for the test was a mixture of surface 20 cm loam and vermiculite, mixed in a volume ratio of 3:1 to form a culture soil. The test weeds were cultured in a glass greenhouse with a temperature ranging from 25° C. to 35° C. and under natural light.
A measured quantity of Digitaria sanguinalis seeds were sown in plastic pots with a diameter of 9 cm, and covered with 1-2 mm of soil. The ports were then placed in enamel trays filled with water, and watered by bottom irrigation. After the water seeped to the soil surface, the pots were transferred to the glass greenhouse for standby.
Five dosages were set for Compound I, Compound II and the control herbicide Topramezone, which were 3.75, 7.5, 15, 30 and 60 grams of active ingredient per hectare respectively. In addition, a blank control was also prepared.
The required amount of the herbicide was accurately measured out and directly added with water, which was diluted to the required dosage by using the serial dilution method for standby.
(§1) The test was conducted on Digitaria sanguinalis at the two-leaf and one-heart stage, with the stems and leaves both sprayed uniformly. The ASS-4 automatic control spraying system with a fan-shaped nozzle was used indoors for herbicide application. Depending on the nozzle pressure and flow rate, 50 mL of herbicide solution was applied to a spraying area of 1.1 m^2 (which was equivalent to the water consumption of 30 L per mu). The system's operating speed was calibrated. The plastic pots to be treated were arranged evenly on the spraying platform to ensure uniform treatment. The spray pressure was set to 0.35 MPa, and the flow rate of the fan-shaped nozzle was set to 800 mL/min. The spraying was carried out in sequence from the low dosage to the high dosage. Each treatment was repeated four times.
The rainfastness test was set as follows: at 0.5 hours, 1.0 hour, 3.0 hours, and 6.0 hours after the application of the herbicide, the weeds that have already been sprayed with the herbicide were subjected to stem and leaf showering with a specific shower equipment simulating rainfall. Weeds that were not subjected to the showering treatment served as the control group.
The damage symptoms of the weeds (such as growth inhibition, chlorosis, malformation, etc.) were carefully recorded at 3, 7, 10, and 20 days after herbicide application. A visual comparison of the herbicide effectiveness was made after simulated rainfall at different time intervals. At 20 days post-application, the fresh weight of the aboveground parts of the weeds from each treatment group was measured, and the fresh weight control efficacy was calculated.
The treatment results were calculated according to the following formula: weed fresh weight control efficacy (%)=(control fresh weight−treatment fresh weight)/control fresh weight×100. A DPS statistical software was used to conduct regression analysis on the logarithmic values of the herbicide dosage and the probit values of the weed fresh weight control efficacy, and the correlation coefficient, GR50, GR90, and the 95% confidence interval were calculated.

Corn (White Waxy Corn) = experiment: Corn safety laboratory test; type: in vivo; settings: for Corn Growth Status / Fresh Weight / Fresh Weight Control Efficacy: White Waxy Corn; for Fresh Weight / Fresh Weight Control Efficacy: 15 days after application
Protocol: Three corn varieties: Zhengdan 958, white waxy corn, and sweet corn (Runhua sweet corn).
The soil used for the test was a mixture of surface 20 cm loam and vermiculite, mixed in a volume ratio of 3:1 to form a culture soil. The test corn was cultured in a glass greenhouse with a temperature ranging from 25° C. to 35° C. and under natural light.
A measured quantity of corn seeds were sown in plastic pots with a diameter of 15 cm, and covered with 2-3 cm of soil. The ports were then placed in enamel trays filled with water, and watered by bottom irrigation. After sowing, the pots were transferred to the glass greenhouse for cultivation and growth.
In the corn safety test, dosages were set for the two Compounds (Compound I of the present invention and Compound II of the present invention) and the control herbicide Topramezone, which were 15, 30, 60, and 120 grams of active ingredient per hectare respectively. In addition, a blank control was also prepared.
The required amount of the herbicide was accurately measured out, an appropriate amount of emulsifier and organic solvent were added to dissolve the herbicide, and then a certain amount of water was added therein until the herbicide was diluted to the required dosage by using the serial dilution method for standby.
Corn stems and leaves were uniformly sprayed at the 3-4-leaf stage.
as §1, with “ASS-3” for “test was conducted on Digitaria sanguinalis at the two-leaf and one-heart stage, with the stems and leaves both sprayed uniformly. The ASS-4”, “three” for “four”
The herbicide was applied once. After spraying, the pots were air-dried for one day and then placed in the glass greenhouse. Regular watering was conducted to maintain moisture.
After application of the herbicide, whether there were any phytotoxic symptoms in the corn for each treatment was recorded. If yes, the phytotoxicity symptoms and grade were recorded in detail. 15 days after application, the fresh weight of the corn in each treatment was measured and the fresh weight control efficacy was calculated to assess the safety of the herbicide on the corn.
The treatment results were calculated according to the following formula: fresh weight control efficacy (%)=(control fresh weight−treatment fresh weight)/control fresh weight×100.

[1] = No spraying (no simulated rainfall), dosage 3.75 g/hectare
[2] = No spraying (no simulated rainfall), dosage 7.5 g/hectare
[3] = No spraying (no simulated rainfall), dosage 15 g/hectare
[4] = No spraying (no simulated rainfall), dosage 30 g/hectare
[5] = No spraying (no simulated rainfall), dosage 60 g/hectare
[6] = Spraying water 0.5 hour after herbicide application, dosage 3.75 g/hectare
[7] = Spraying water 0.5 hour after herbicide application, dosage 7.5 g/hectare
[8] = Spraying water 0.5 hour after herbicide application, dosage 15 g/hectare
[9] = Spraying water 0.5 hour after herbicide application, dosage 30 g/hectare
[10] = Spraying water 0.5 hour after herbicide application, dosage 60 g/hectare
[11] = Spraying water 1.0 hour after herbicide application, dosage 3.75 g/hectare
[12] = Spraying water 1.0 hour after herbicide application, dosage 7.5 g/hectare
[13] = Spraying water 1.0 hour after herbicide application, dosage 15 g/hectare
[14] = Spraying water 1.0 hour after herbicide application, dosage 30 g/hectare
[15] = Spraying water 1.0 hour after herbicide application, dosage 60 g/hectare
[16] = Spraying water 3.0 hour after herbicide application, dosage 3.75 g/hectare
[17] = Spraying water 3.0 hour after herbicide application, dosage 7.5 g/hectare
[18] = Spraying water 3.0 hour after herbicide application, dosage 15 g/hectare
[19] = Spraying water 3.0 hour after herbicide application, dosage 30 g/hectare
[20] = Spraying water 3.0 hour after herbicide application, dosage 60 g/hectare
[21] = Spraying water 6.0 hour after herbicide application, dosage 3.75 g/hectare
[22] = Spraying water 6.0 hour after herbicide application, dosage 7.5 g/hectare
[23] = Spraying water 6.0 hour after herbicide application, dosage 15 g/hectare
[24] = Spraying water 6.0 hour after herbicide application, dosage 30 g/hectare
[25] = Spraying water 6.0 hour after herbicide application, dosage 60 g/hectare

Cc1c(C(=O)c2cnn(C)c2O)ccc(S(C)(=O)=O)c1C1=NOCC1 [Topramezone]
Average fresh weight (Digitaria sanguinalis; [1]): 6.2 g
Control efficacy (Digitaria sanguinalis; [1]): 4.6%
Average fresh weight (Digitaria sanguinalis; [2]): 5.0 g
Control efficacy (Digitaria sanguinalis; [2]): 23.4%
Average fresh weight (Digitaria sanguinalis; [3]): 3.7 g
Control efficacy (Digitaria sanguinalis; [3]): 43.7%
Average fresh weight (Digitaria sanguinalis; [4]): 2.3 g
Control efficacy (Digitaria sanguinalis; [4]): 64.8%
Average fresh weight (Digitaria sanguinalis; [5]): 1.2 g
Control efficacy (Digitaria sanguinalis; [5]): 82.4%
Average fresh weight (Digitaria sanguinalis; [6]): 6.5 g
Control efficacy (Digitaria sanguinalis; [6]): 0.0%
Average fresh weight (Digitaria sanguinalis; [7]): 6.0 g
Control efficacy (Digitaria sanguinalis; [7]): 7.7%
Average fresh weight (Digitaria sanguinalis; [8]): 5.9 g
Control efficacy (Digitaria sanguinalis; [8]): 10.3%
Average fresh weight (Digitaria sanguinalis; [9]): 5.5 g
Control efficacy (Digitaria sanguinalis; [9]): 16.5%
Average fresh weight (Digitaria sanguinalis; [10]): 4.6 g
Control efficacy (Digitaria sanguinalis; [10]): 29.1%
Average fresh weight (Digitaria sanguinalis; [11]): 6.4 g
Control efficacy (Digitaria sanguinalis; [11]): 2.7%
Average fresh weight (Digitaria sanguinalis; [12]): 6.0 g
Control efficacy (Digitaria sanguinalis; [12]): 8.0%
Average fresh weight (Digitaria sanguinalis; [13]): 5.7 g
Control efficacy (Digitaria sanguinalis; [13]): 13.4%
Average fresh weight (Digitaria sanguinalis; [14]): 5.3 g
Control efficacy (Digitaria sanguinalis; [14]): 19.2%
Average fresh weight (Digitaria sanguinalis; [15]): 4.7 g
Control efficacy (Digitaria sanguinalis; [15]): 28.0%
Average fresh weight (Digitaria sanguinalis; [16]): 6.4 g
Control efficacy (Digitaria sanguinalis; [16]): 1.5%
Average fresh weight (Digitaria sanguinalis; [17]): 5.8 g
Control efficacy (Digitaria sanguinalis; [17]): 10.7%
Average fresh weight (Digitaria sanguinalis; [18]): 5.7 g
Control efficacy (Digitaria sanguinalis; [18]): 13.4%
Average fresh weight (Digitaria sanguinalis; [19]): 4.1 g
Control efficacy (Digitaria sanguinalis; [19]): 36.8%
Average fresh weight (Digitaria sanguinalis; [20]): 3.3 g
Control efficacy (Digitaria sanguinalis; [20]): 50.2%
Average fresh weight (Digitaria sanguinalis; [21]): 6.5 g
Control efficacy (Digitaria sanguinalis; [21]): 0.4%
Average fresh weight (Digitaria sanguinalis; [22]): 5.1 g
Control efficacy (Digitaria sanguinalis; [22]): 21.8%
Average fresh weight (Digitaria sanguinalis; [23]): 3.5 g
Control efficacy (Digitaria sanguinalis; [23]): 46.0%
Average fresh weight (Digitaria sanguinalis; [24]): 2.7 g
Control efficacy (Digitaria sanguinalis; [24]): 59.4%
Average fresh weight (Digitaria sanguinalis; [25]): 1.2 g
Control efficacy (Digitaria sanguinalis; [25]): 81.2%
Effect of rain on control efficacy (in words) (Digitaria sanguinalis; rain 0.5 h, 1.0 h and 3.0 h after application): obviously affected; also recorded: significantly reduced
Effect of rain on control efficacy (in words) (Digitaria sanguinalis; rain 6.0 h after application): relatively small impact; also recorded: almost unaffected
Corn Growth Status (Corn (White Waxy Corn); dosage 15 g a.i./ha): Good, Normal Growth
Fresh Weight (Corn (White Waxy Corn); dosage 15 g a.i./ha): 9.7 g
Fresh Weight Control Efficacy (Corn (White Waxy Corn); dosage 15 g a.i./ha): −2.7%
Corn Growth Status (Corn (White Waxy Corn); dosage 30 g a.i./ha): Good, Normal Growth
Fresh Weight (Corn (White Waxy Corn); dosage 30 g a.i./ha): 9.4 g
Fresh Weight Control Efficacy (Corn (White Waxy Corn); dosage 30 g a.i./ha): 0.3%
Corn Growth Status (Corn (White Waxy Corn); dosage 60 g a.i./ha): Good, Normal Growth
Fresh Weight (Corn (White Waxy Corn); dosage 60 g a.i./ha): 9.5 g
Fresh Weight Control Efficacy (Corn (White Waxy Corn); dosage 60 g a.i./ha): −0.3%
Corn Growth Status (Corn (White Waxy Corn); dosage 120 g a.i./ha): Good, Normal Growth
Fresh Weight (Corn (White Waxy Corn); dosage 120 g a.i./ha): 9.0 g
Fresh Weight Control Efficacy (Corn (White Waxy Corn); dosage 120 g a.i./ha): 4.5%
Growth of corn / phytotoxicity (in words) (Corn (White Waxy Corn); white waxy corn, highest dosage, 120 grams of active ingredient per hectare): normal, without causing any phytotoxicity
